Data from patent US20150252048A1, “SUBSTITUTED N-(3-PYRIMIDIN-4-YL)PHENYL)ACRYLAMIDE ANALOGS AS TYROSINE RECEPTOR KINASE BTK INHIBITORS” (UNIVERSITY OF UTAH RESEARCH FOUNDATION, priority 2012, published 2015).
Values joined by “and” are separate entries in the source; they are usually repeats but may differ in a detail not shown here. Equal entries are not always repeated. Where two headings read alike, the source gives them in different places.

Tests used:
[1] = molecular target: T1, recombinant full-length human BTK kinase (Homo sapiens, UniProt Q06187); experiment: BTK kinase assay: ADP generation assay (ADP-Glo); type: biochemical; conditions: 60 nM BTK, MBP substrate, 60 min
T1 construct: recombinant full-length human BTK kinase with a (His)6 tag; (His)6; purchased Invitrogen Corporation, Carlsbad, Calif
Experimental: The primary assay for compound inhibitory activity was the ADP generation assay described herein. Test compounds were diluted to desired concentrations in kinase reaction buffer and briefly incubated with recombinant full-length human BTK kinase with a (His)6 tag (81.3 kDa; Invitrogen Corporation, Carlsbad, Calif.). The assay as described is based on volumes used in a standard 384 well format using solid, white-wall plates. The reaction was subsequently initiated by the addition of ATP and myelin basic protein (MBP) substrate (Millipore Corporation, Waltham, Mass.). Composition of the assay reaction mixture ([…]) was: 5% v/v DMSO, 60 nM BTK, 1.6 µM ATP, and 20 µM MBP substrate. After incubation at room temperature for 60 min, […] (Promega Corporation, Madison, Wis.) was added to each well and incubated for an additional 40 minutes. The reagent stopped the kinase reaction and depleted the unconsumed ATP. Kinase Detection reagent ([…]; Promega Corporation) was then added to each well. The Kinase Detection reagent comprises reagents to convert ADP to ATP and provide luciferase and luciferin to detect ATP. Luminescence was measured on an EnVision microplate reader (PerkinElmer). The amount of luminescence from each reaction is directly correlated with BTK kinase activity. Percent inhibition and IC50 values were calculated by comparing enzyme activity in drug-treated wells to the appropriate controls.
(§1) IC50 values are determined using GraphPad Prism 5 software. The data were entered as an X-Y plot into the software as percent inhibition for each concentration of the drug. The concentration values of the drug were log transformed and the nonlinear regression was carried out using the “sigmoidal dose-response (variable slope)” option within the GraphPad software to model the data and calculate IC50 values. The IC50 values reported are the concentration of drug at which 50% inhibition was reached.
(§2) Activity (IC50) was determined in the BTK assays describe herein below, i.e. either the ADP generation assay and/or the time-resolved FRET assay, and the data are shown in Table III. The compound number corresponds to the compound numbers used in Table I. In the table below, “ADP Assay” refers to the assay which measures production of ADP resulting from use of ATP by the kinase; and “HTRF Assay” refers to the time resolved-FRET kinase assay described in the examples. Multiple values in a given column indicate the results of more than one assay for the given compound. Representative data of the type used to determine the IC50 values for the ADP assay in Table III are shown in FIG. 8 for compounds 3, 4, and 5.

[2] = molecular target: BTK (Homo sapiens, UniProt Q06187); experiment: BTK kinase assay: time resolved-FRET (HTRF) assay; type: biochemical; parameters: recombinant full-length human BTK kinase with a (His)6 tag; (His)6; purchased Invitrogen Corporation, Carlsbad, Calif; conditions: 10 nM BTK, 60 μM ATP, 1 μM substrate
Experimental: Activity of compounds was routinely confirmed using a secondary assay as described herein. The secondary assay was a time resolved-FRET kinase assay. Test compound are diluted to desired concentrations in kinase reaction buffer and briefly incubated with BTK kinase (as described above; Invitrogen). The reaction is initiated by the addition of ATP and enzyme substrate, HTRF® KinEASE™-TK Substrate-biotin (Cisbio US, Bedford, Mass.). The composition of the reaction (10 μl) was: 1% v/v DMSO, 10 nM BTK, 60 μM ATP, and 1 μM substrate. After incubation at room temperature for 60 min, the enzyme reaction is stopped by EDTA-containing buffer, which also contains europium-labeled (Eu^3+-Cryptate) anti-phosphotyrosine antibody (Cisbio) and Streptavidin-XL665 (Cisbio). The europium-labeled antibody generates a time-resolved FRET signal with the Stepavidin-XL665, which binds to the biotinylated TK substrate through the streptavidin conjugate when the substrate is phosphorylated. After one hour incubation at room temperature, fluoresence was measured with excitation of 320 nm and dual emission of 615 and 665 nm on an EnVision microplate reader. Signal is expressed in terms of a TR-FRET ratio (665:615).
as §1, §2

[3] = Pharmacokinetics in rat; type: in vivo, male Sprague Dawley rats; conditions: for AUC(0-t): read-out: AUC0-t
Experimental: The pharmacokinetic behavior of a representative disclosed compound, compound 3 (N-(3-(6-((3-morpholinophenyl)amino)-1H-pyrazolo[3,4-d]pyrimidin-4-yl)phenyl)acrylamide), which corresponds to compound 3 in Table I, was also evaluated in rat. A study was conducted using three male Sprague Dawley rats in each group as shown below:
The solution formulations were prepared as follows: (A) intravenous route (“i.v.”): a weighed quantity of 3 (10.45 mg) was transferred into a 10 mL clean glass vial. To this 0.231 mL of ethanol (4.5%) was added, vortexed and sonicated. To this 1.028 mL of propylene glycol (20%) was added, vortexed and sonicated. 1.543 mL of PEG400 (30%) was added, vortexed and sonicated. Finally 2.340 mL of water (45.5%) was added gradually, vortexed and sonicated to make a solution of 2 mg/mL concentration. The final solution was filtered using syringe filter (0.22 μm).; and (B) a weighed quantity of SC-1344 (27.43 mg) was transferred into a 10 mL clean glass vial. To this 0.304 mL of ethanol (4.5%) was added, vortexed and sonicated. To this 1.350 mL of propylene glycol (20%) was added, vortexed and sonicated. 2.024 mL of PEG400 (30%) was added, vortexed and sonicated. Finally 3.070 mL of water (45.5%) was added gradually, vortexed and sonicated to make a solution of 4 mg/mL concentration. The final solution was filtered using syringe filter (0.22 μm).
Bioanalysis was performed using fit-for-purpose LC-MS/MS method for the quantification of 3 in rat plasma samples. The calibration curve (CC) for the method consisted of nine non-zero calibration standards along with a double blank and zero standard samples. Study samples were analyzed along with two sets of quality control samples (6 QC samples; low, medium and high QC samples in triplicate). Briefly, the LC-MS/MS method used the following parameters: a) gradient mobile phase (Pump A: 0.1% Formic acid in water; Pump B: 100% methanol); b) XBridge C8, 50×4.6 mm, 3.5μ (Waters) column; c) 10 μL injection volume; d) 1.00 mL/min flow rate; e) 3.50 min run time; f) 10° C. sample cooler temperature; and g) 40° C. column oven temperature. The sample calibration curve was 1.02-1023 ng/mL, with an internal standard (telmisartan) at 0.2 μg/mL. Briefly, biological samples were prepared as follows: 50 μL of sample was mixed with 150 μL of internal standard, then mixture was vortexed for 5 min at 800 rpm, followed by centrifugation at 4000 rpm for 5 min; 150 μL of the sample supernatant was transferred into a separate tube and diluted with 75 μL of methanol: water (1:1), followed by injection into LC/MS/MS.
Plasma pharmacokinetic parameters were calculated using the non-compartmental analysis tool of Phoenix software (Version 6.3) and were determined from individual animals in each group. The area under the plasma concentration-time curve (AUC0-t and AUCinf), elimination half-life (T1/2), clearance (CL), volume of distribution (Vss) and Mean residence time (MRT) were calculated from intravenous group. The peak plasma concentration (Cmax), time to achieve peak plasma concentration (Tmax), AUC0-t and AUCinf, and absolute oral bioavailability (F) were calculated from the oral group.
The mean plasma concentration-time profiles are shown in FIGS. 10 and 11, i.e. the mean concentration values of the individual values obtained from each rat in the study group at the indicated time points.

[4] = Microsomal stability, positive control assays; type: in vitro ADME; conditions: microsomes used in the study
Experimental: Data were also obtained for the stability of Compound 3 when incubated with a microsomal preparation. Drug metabolism can occur, at least in part, in cellular microsomes, and thus the assay assesses the stability of drug to metabolic modification. The concentration of compound 3 was 1 μM in the assay system and the indicated microsomes were present at 0.5 mg total protein per milliliter. The concentration of intact drug was determined at the indicated timepoints using a LC-MS/MS assay. The enzyme activity of the microsomes used in this study were assessed using a positive control, testosterone.

[5] = male, Sprague Dawley, plasma, IV 5 mg/kg, solution

Chain of BTK (Q06187 whole entry): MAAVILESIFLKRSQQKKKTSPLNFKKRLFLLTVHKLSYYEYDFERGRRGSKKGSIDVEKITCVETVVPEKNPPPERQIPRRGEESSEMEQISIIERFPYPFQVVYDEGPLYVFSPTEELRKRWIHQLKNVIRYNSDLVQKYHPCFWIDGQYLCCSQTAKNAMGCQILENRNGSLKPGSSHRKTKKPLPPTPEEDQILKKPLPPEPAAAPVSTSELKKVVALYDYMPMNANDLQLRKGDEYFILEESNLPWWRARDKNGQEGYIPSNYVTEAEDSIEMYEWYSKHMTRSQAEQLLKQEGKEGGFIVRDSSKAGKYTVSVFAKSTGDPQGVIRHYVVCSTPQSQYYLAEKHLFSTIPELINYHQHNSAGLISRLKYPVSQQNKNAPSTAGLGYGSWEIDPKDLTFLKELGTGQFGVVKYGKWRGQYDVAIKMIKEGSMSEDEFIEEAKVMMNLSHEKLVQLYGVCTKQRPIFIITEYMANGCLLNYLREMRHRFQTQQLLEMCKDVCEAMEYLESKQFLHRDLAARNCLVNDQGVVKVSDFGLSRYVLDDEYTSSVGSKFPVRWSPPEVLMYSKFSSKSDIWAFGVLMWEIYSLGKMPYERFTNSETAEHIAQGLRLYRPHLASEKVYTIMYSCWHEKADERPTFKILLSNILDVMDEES
T1 sequence (Q06187 whole entry): as above

Structure (SMILES)	IC50 [1]	IC50 [2] [nM]	other results
C=CC(=O)Nc1cccc(-c2nc(Nc3cccc(N4CCN(C)CC4)c3)ncc2Cl)c1 [Compound 1, N-(3-(5-chloro-2-((3-(4-methylpiperazin-1-yl)phenyl)amino)pyrimidin-4-yl)phenyl)acrylamide]	29 nM and 14 nM	14.2	
C=CC(=O)Nc1cccc(-c2nc(Nc3cccc(N4CCOCC4)c3)ncc2Cl)c1 [Compound 2, N-(3-(5-chloro-2-((3-morpholinophenyl)amino)pyrimidin-4-yl)phenyl)acrylamide]	70 nM		
C=CC(=O)Nc1cccc(-c2nc(Nc3cccc(N4CCN(C)CC4)c3)nc3[nH]ncc23)c1 [Compound 4, N-(3-(6-((3-(4-methylpiperazin-1-yl)phenyl)amino)-1H-pyrazolo[3,4-d]pyrimidin-4-yl)phenyl)acrylamide]	9 nM	9.1	
C=CC(=O)Nc1cccc(-c2nc(Nc3cccc(N4CCOCC4)c3)nc3[nH]nc(Cl)c23)c1 [Compound 5, N-(3-(3-chloro-6-((3-morpholinophenyl)amino)-1H-pyrazolo[3,4-d]pyrimidin-4-yl)phenyl)acrylamide]	96 nM	175	
C=CC(=O)Nc1cc(-c2nc(Nc3cccc(N4CCOCC4)c3)nc3[nH]nc(Cl)c23)ccc1Cl [Compound 6, N-(2-chloro-5-(3-chloro-6-((3-morpholinophenyl)amino)-1H-pyrazolo[3,4-d]pyrimidin-4-yl)phenyl)acrylamide]	≥ 100000 nM	> 100000	
C=CC(=O)Nc1cccc(-c2nc(Nc3cccc(N4CCOCC4)c3)nc3[nH]cc(Cl)c23)c1 [Compound 7, N-(3-(5-chloro-2-((3-morpholinophenyl)amino)-7H-pyrrolo[2,3-d]pyrimidin-4-yl)phenyl)acrylamide]	96 nM	175	
C=CC(=O)Nc1cccc(-c2nc(Nc3cccc(N4CCOCC4)c3)nc3[nH]ccc23)c1 [Compound 8, N-(3-(2-((3-morpholinophenyl)amino)-7H-pyrrolo[2,3-d]pyrimidin-4-yl)phenyl)acrylamide]		> 10000	
C=CC(=O)Nc1cccc(-c2nc(Nc3cccc(N4CCNCC4)c3)nc3[nH]ncc23)c1 [Compound 9, N-(3-(6-((3-(piperazin-1-yl)phenyl)amino)-1H-pyrazolo[3,4-d]pyrimidin-4-yl)phenyl)acrylamide]		14	
C=CC(=O)Nc1cccc(-c2nc(Nc3cccc(N4CCNCC4)c3)ncc2Cl)c1 [Compound 10, N-(3-(5-chloro-2-((3-(piperazin-1-yl)phenyl)amino)pyrimidin-4-yl)phenyl)acrylamide]		70	
C=CC(=O)Nc1cccc(-c2nc(Nc3cccc(N4CCOCC4)c3)nc3[nH]ncc23)c1 [SC-1344, N-(3-(6-((3-morpholinophenyl)amino)-1H-pyrazolo[3,4-d]pyrimidin-4-yl)phenyl)acrylamide]			Vss relative to total body water normalized to body weight (0.7 L/kg) ([3]; IV 5 mg/kg): approximately 11 fold; clearance [3, 5]: 79.7 mL/min/kg; half-life [3, 5]: 2.71 h; AUC(0-t) [3, 5]: 1060 ng·h/mL; Vd ([3]; male, Sprague Dawley, plasma, IV 5 mg/kg, solution, read-out: Vss): 7.91 L/kg; bioavailability ([3]; male, Sprague Dawley, plasma, PO 20 mg/kg vs IV 5 mg/kg, AUC0-t and nominal doses used, read-out: F (absolute oral bioavailability)): 2.44%; AUC(0-t) ([3]; male, Sprague Dawley, plasma, PO 20 mg/kg, solution): 104 ng·h/mL; Cmax ([3]; male, Sprague Dawley, plasma, PO 20 mg/kg, solution, read-out: Cmax): 23.1 ng/mL
C[C@]12CC[C@H]3[C@@H](CCC4=CC(=O)CC[C@@]43C)[C@@H]1CC[C@@H]2O [testosterone]			Disappearance of positive control in microsomes [4]: rapid disappearance
